This is an account of results in PubChem BioAssay (NCI).

Among the test systems are HS 578T breast; SNB-19 CNS; SW-620 colon; EKVX NSCLC; MCF7 breast; CAKI-1 renal; K-562 leukemia; CCRF-CEM leukemia; SNB-75 CNS; NCI-H460 lung; SF-539 CNS.
Common to all, as to assay: DTP human tumour cell line panel, 48 h

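Following 48 hours of exposure in 96-well plates, responses at five concentrations were used to interpolate endpoints linearly. TGI: total growth inhibition.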 *1 amine or outer side, *2 acyl side, *3 side chain or, on linkers, in order; H or OH if unused. Where a SMILES comes first, the peptide text is derived from it. Bridges are numbered along the chain shown (N, C = ends). Roman numbers before positions name the chains, in order. [ ]: non-standard residue; d: D form. Actinocin(9to1) = Cc1c2oc3c(C)ccc(C(=O)[*:1])c3nc-2c(C(=O)[*:2])c(N)c1=O; NMeV = CN[CH](C(=O)O)C(C)C; Sar = CNCC(=O)O

In general, TGI refers to the concentration giving total growth inhibition. Read a high TGI as less potent growth arrest. For `C[C@]12[C@@H]3CC[C@H]1[C@@H](O)C(=O)N2CC3`, the TGI with HS 578T breast, in the test with SNB-19 CNS, in the test with SW-620 colon, in the test on EKVX NSCLC, with MCF7 breast and with CAKI-1 renal was greater than 100 µM in each case. Besides, the TGI in the test on K-562 leukemia, in the test on CCRF-CEM leukemia, in the test on SNB-75 CNS and in the test with NCI-H460 lung was greater than 100 µM throughout.

On to `Cc1c2oc3c(C)ccc(C(=O)NC4C(=O)NC(C(C)C)C(=O)N5CCCC5C(=O)N(C)CC(=O)N(C)C(C(C)C)C(=O)OC4C)c3nc-2c(C(=O)NC2C(=O)NC(C(C)C)C(=O)N3CCCC3C(=O)N(C)CC(=O)N(C)C(C(C)C)C(=O)OC2C)c(N)c1=O` (stereo not given) (I: TVP[Sar][NMeV] / II: TVP[Sar][NMeV]; ester I:1-I:C, II:1-II:C; linker I:N-II:N via Actinocin(9to1); configuration not given here), for which the TGI with HS 578T breast is 0.00439 µM; in the test with SNB-19 CNS it was greater than 0.35 µM; in the test with SW-620 colon, 0.105 µM; in the test with EKVX NSCLC, greater than 0.779 µM; with MCF7 breast it was 0.00342 µM; in the test with SF-539 CNS it was 0.00299 µM. For the same molecule, the TGI is greater than 0.316 µM in the test on CAKI-1 renal, 0.0033 µM in the test with CCRF-CEM leukemia, 0.000907 µM in the test on SNB-75 CNS and 0.00126 µM with NCI-H460 lung.

For `C(=C/CCCN1O[C@@H](CCCCCCCCc2cccnc2)[C@H]2CCC[C@H]21)/CCCCCCCCCc1cccnc1`, the TGI is greater than 100 µM in the test with HS 578T breast; 85 µM with SNB-19 CNS; 91.8 µM with SW-620 colon; 13.9 µM in the test with EKVX NSCLC; 31.6 µM in the test with MCF7 breast; 34.9 µM with SF-539 CNS. For the same molecule, the TGI in the test with CAKI-1 renal was determined as 33.1 µM; in the test on K-562 leukemia, 29 µM; with CCRF-CEM leukemia, 41.3 µM; with SNB-75 CNS, 51.4 µM; with NCI-H460 lung it was 39.2 µM.

Consider `CC(N)/C(N)=N/O` (stereo not given), for which the TGI with HS 578T breast, with SNB-19 CNS, in the test with SW-620 colon, in the test on EKVX NSCLC, in the test with MCF7 breast and in the test on SF-539 CNS was greater than 100 µM throughout. The TGI in the test on CAKI-1 renal, with K-562 leukemia, with CCRF-CEM leukemia, in the test on SNB-75 CNS and in the test with NCI-H460 lung was greater than 100 µM in each case.

On to `O=C1/C(=C\c2ccc(Cl)cc2Cl)Sc2scc(-c3ccc(O)c(O)c3)[n+]21`, for which the TGI with HS 578T breast is greater than 100 µM; in the test with SNB-19 CNS it was 48.8 µM; in the test with SW-620 colon it was 29.7 µM; in the test with EKVX NSCLC it was 49 µM; with MCF7 breast it was 73.2 µM; with SF-539 CNS it was 45.2 µM. Moreover, the TGI in the test on CAKI-1 renal came to 43.4 µM; with CCRF-CEM leukemia it was 39.4 µM; in the test with SNB-75 CNS it was 53.4 µM; in the test on NCI-H460 lung it was 48.2 µM.

On to `O=C(C(=O)n1ccc2ccccc21)n1ccc2ccccc21`, for which the TGI in the test with HS 578T breast, with SNB-19 CNS, in the test with SW-620 colon, in the test with EKVX NSCLC, in the test on MCF7 breast and in the test on SF-539 CNS was greater than 100 µM in each case. Further, the TGI is greater than 100 µM in the test on CAKI-1 renal; greater than 100 µM in the test on K-562 leukemia; greater than 100 µM in the test on CCRF-CEM leukemia; 56 µM in the test with SNB-75 CNS; greater than 100 µM in the test with NCI-H460 lung.

For the molecule `CCCCCCc1cc2cc(-c3cn4ccsc4n3)c(=O)oc2cc1O`, the TGI in the test on HS 578T breast is greater than 77 µM; in the test with SNB-19 CNS it was greater than 100 µM; with SW-620 colon it was greater than 100 µM; in the test with EKVX NSCLC, greater than 100 µM; in the test with MCF7 breast it was greater than 100 µM; in the test on SF-539 CNS, greater than 100 µM. For the same molecule, the TGI with CAKI-1 renal is greater than 95.9 µM; with K-562 leukemia, greater than 100 µM; with CCRF-CEM leukemia, greater than 100 µM; in the test with SNB-75 CNS it was greater than 92.7 µM; in the test with NCI-H460 lung it was greater than 100 µM.

For the molecule `CC(=O)CC1CCC(=O)/C=C/C(=O)OC(CC(C)=O)CCC(=O)/C=C/C(=O)O1` (stereo not given), the TGI in the test with HS 578T breast is 69.9 µM; with SNB-19 CNS it was 43.4 µM; with SW-620 colon, 3.65 µM; with EKVX NSCLC, 21.2 µM; in the test on MCF7 breast it was 27.6 µM; in the test on SF-539 CNS it was 34.9 µM. In addition, the TGI is 20 µM with CAKI-1 renal; greater than 20.9 µM in the test on K-562 leukemia; greater than 100 µM with CCRF-CEM leukemia; 28.8 µM in the test with SNB-75 CNS; 36.3 µM in the test with NCI-H460 lung.

With `N#CSC#CCCC#CSC#N`, the TGI in the test with HS 578T breast was 76.2 µM; in the test with SNB-19 CNS, 29 µM; with SW-620 colon, 38.7 µM; in the test with EKVX NSCLC it was 41.5 µM; in the test on MCF7 breast, 48.2 µM; with SF-539 CNS, 41.2 µM. The TGI was 33.7 µM with CAKI-1 renal, greater than 100 µM in the test with K-562 leukemia, greater than 100 µM in the test on CCRF-CEM leukemia and 48.4 µM in the test on NCI-H460 lung.

For `C[C@]12c3c4cc(NC(=O)C(=O)NCc5ccc(-c6ccccn6)nc5)cc3Oc3cc(NC(=O)C(=O)NCc5ccc(-c6ccccn6)nc5)cc(c31)OC1C=C(NC(=O)C(=O)NCc3ccc(-c5ccccn5)nc3)C=C(O4)C12` (stereo not given in full), the TGI in the test on HS 578T breast is greater than 100 µM; in the test on SNB-19 CNS, greater than 100 µM; in the test with SW-620 colon, greater than 100 µM; with EKVX NSCLC it was 62.4 µM; in the test on MCF7 breast, greater than 100 µM; in the test with SF-539 CNS, greater than 100 µM. In addition, the TGI was 93.4 µM in the test with CAKI-1 renal; greater than 100 µM with K-562 leukemia; greater than 100 µM with CCRF-CEM leukemia; 76.3 µM with SNB-75 CNS; greater than 100 µM with NCI-H460 lung.

As to `O=c1[nH]c(=O)c2c3n(cc2[nH]1)CCCCC3`, the TGI with HS 578T breast, in the test with SNB-19 CNS, in the test on EKVX NSCLC, with MCF7 breast, with CAKI-1 renal and in the test with K-562 leukemia was greater than 100 µM each time. Also, the TGI with CCRF-CEM leukemia, in the test on SNB-75 CNS and in the test with NCI-H460 lung was greater than 100 µM each time.

In the case of `COc1cc(S(=O)(=O)Nc2ccc(-c3csc(N4C(=O)CSC4c4cccc(Oc5ccccc5)c4)n3)cc2)ccc1Cl` (stereo not given), the TGI in the test on HS 578T breast was greater than 100 µM; with SNB-19 CNS, greater than 100 µM; in the test with SW-620 colon, greater than 100 µM; with EKVX NSCLC, greater than 100 µM; in the test on MCF7 breast, 51.7 µM; in the test on SF-539 CNS it was greater than 100 µM. Also, the total growth inhibition concentration (TGI) in the test on CAKI-1 renal, in the test with K-562 leukemia, with CCRF-CEM leukemia and with SNB-75 CNS was greater than 100 µM each time.
